Laboratory results as given in article PMC9919513, “A Practical Approach to Bicyclic Carbamoyl Pyridones with Application to the Synthesis of HIV-1 Integrase Strand Transfer Inhibitors” (Molecules, 2023).
Like-named read-outs stand apart in the source and are kept apart here.

Key:
[1] = tested on: HIV-1 vectors that carry WT IN; test: Single-round HIV-1 replication antiviral assay, wild-type IN; format: cell-based; settings: for EC50: 48 h; for Ratio of the antiviral potencies after and before hydrogenation (WT): EC50 of saturated 7 over EC50 of unsaturated 6, WT IN
Protocol: The bicyclic metal chelating carbamoyl pyridone moiety is common to second-generation tricyclic INSTIs (3, 4, and 5, Figure 1). Analogs of the current study are simplified analogs that lack a third ring. […] The halogen substitution pattern of the benzylamide moiety can affect inhibitory potencies of INSTIs. We determined the antiviral potencies of our compounds in single round HIV-1 replication assays using viral constructs with wild-type IN [31]. Cytotoxicities were determined as previously described. […] In general, the potencies of bicyclic analogs 6 having an unsaturated bond at the C4 position were insensitive to differences in N-methyl substituents. […] Analogs 6g and 6h represent simplified analogs of DTG (3) and CAB (5), respectively, in which the third ring (C-ring) is opened and having doble bond in B-ring, but lacking α-methyl stereochemistry.
Human embryonic kidney cell culture cell line 293 was acquired from the American Type Culture Collection (ATCC). The human osteosarcoma cell line, HOS, was obtained from Dr. Richard Schwartz (Michigan State University, East Lansing, MI, USA) and grown in Dulbecco’s modified Eagle’s medium (Invitrogen, Carlsbad, CA, USA) supplemented with 5% (v/v) fetal bovine serum, 5% newborn calf serum, and penicillin (50 units/mL) plus streptomycin (50 µg/mL; Quality Biological, Gaithersburg, MD, USA). The transfection vector, pNLNgoMIVR-ΔLUC was made from pNLNgoMIVR-ΔEnv.HSA by removing the HSA reporter gene and replacing it with a luciferase reporter gene between the NotI and XhoI restriction sites. To produce the new IN mutant S230N used in this study, the IN open reading frame was removed from pNLNgoMIVR-ΔENV.LUC by digestion with KpnI and SalI, and the resulting fragment was inserted between the KpnI and SalI sites of pBluescript KS+. Using that construct as the wild-type template, we prepared the following HIV-1 IN mutant S230N using the QuikChange II XL site-directed mutagenesis kit (Agilent Technologies, Santa Clara, CA, USA) protocol. The following sense oligonucleotides were used with matching cognate antisense oligonucleotides (not shown) (Integrated DNA Technologies, Coralville, IA, USA) in the mutagenesis: S230N 5′-[…]-3′. The DNA sequence of the IN mutant S230N construct was verified independently by DNA sequence determination. The mutated IN coding sequences from pBluescript KS+ were then subcloned into pNLNgoMIVR-ΔEnv.LUC (between the KpnI and SalI sites) to produce mutant HIV-1 constructs, which were also checked by DNA sequencing. […]. On the day prior to transfection, 293 cells were plated on 100 mm diameter dishes at a density of 1.5 × 10^6 cells per plate. Next, 293 cells were transfected with 16 µg of pNLNgoMIVR^-ΔLUC and 4 µg of pHCMV-g (obtained from Dr. Jane Burns, University of California, San Diego) using the calcium phosphate method. At approximately 6 h after the calcium phosphate precipitate was added, 293 cells were washed twice with phosphate-buffered saline (PBS) and incubated with fresh media for 48 h. The virus-containing supernatants were then harvested, clarified by low-speed centrifugation, filtrated, and diluted for preparation in antiviral infection assays. On the day prior to the screen, HOS cells were seeded in a 96-well luminescence cell culture plate at a density of 4000 cells in 100 µL per well. On the day of the screen for cellular cytotoxicity determination, cells were treated with compounds from a concentration range of 250 µM to 0.05 µM and then incubated at 37 °C for 48 h. On the day of the screen for antiviral activity infection assays, cells were treated with compounds from a concentration range of 5 µM to 0.0001 µM using 11 serial dilutions and then incubated at 37 °C for 3 h. After compound incorporation and activation in the cell, 100 µL of virus-stock (WT or mutant) diluted to achieve a luciferase signal between 0.2 and 1.5 Relative Luciferase Units (RLUs) was added to each well and further incubated at 37 °C for 48 h. […]

[2] = Human immunodeficiency virus 1, HOS, read-out: EC50, antiviral potency, WT IN, VSV-g-pseudotyped HIV-1 luciferase vector with WT IN, HOS cells, 48 h
[3] = read-out: EC50, antiviral potency, WT IN, VSV-g-pseudotyped HIV-1 luciferase vector with WT IN, HOS cells

Compound: O=C(NCc1ccc(F)cc1F)c1cn2ccn(CCCCO)c(=O)c2c(O)c1=O [Compound 6e, N-(2,4-Difluorobenzyl)-9-hydroxy-2-(4-hydroxybutyl)-1,8-dioxo-1,8-dihydro-2H-pyrido [1,2-a]pyrazine-7-carboxamide]
- EC50 [1, 2]: ~17 nM
- EC50 [1, 3]: 16.6 ± 2 nM

Compound: O=C(NCc1ccc(F)cc1F)c1cn2c(c(O)c1=O)C(=O)N(CCCCCCO)CC2 [Compound 7c, N-(2,4-Difluorobenzyl)-9-hydroxy-2-(6-hydroxyhexyl)-1,8-dioxo-1,3,4,8-tetrahydro-2H-pyrido [1,2-a]pyrazine-7-carboxamide]
- melting point: 208 to 210 °C
- Ratio of the antiviral potencies after and before hydrogenation (WT) [1]: 6.6
- EC50 [1, 2]: 31.7 ± 3.8 nM

Compound: O=C(NCc1ccc(F)cc1F)c1cn2c(c(O)c1=O)C(=O)N(CCCCO)CC2 [Compound 7e, N-(2,4-Difluorobenzyl)-9-hydroxy-2-(4-hydroxybutyl)-1,8-dioxo-1,3,4,8-tetrahydro-2H-pyrido [1,2-a]pyrazine-7-carboxamide]
- melting point: 210 to 215 °C
- Ratio of the antiviral potencies after and before hydrogenation (WT) [1]: 4.6
- EC50 [1, 2]: 75.7 ± 7.4 nM

Compound: O=C(NCc1ccc(F)cc1F)c1cn2ccn(CCCCCCO)c(=O)c2c(O)c1=O [Compound 6c, N-(2,4-Difluorobenzyl)-9-hydroxy-2-(6-hydroxyhexyl)-1,8-dioxo-1,8-dihydro-2H-pyrido [1,2-a]pyrazine-7-carboxamide]
- EC50 [1, 2]: 4.8 ± 0.9 nM

Compound: O=C(NCc1ccc(F)cc1F)c1cn2ccn(CCCCCO)c(=O)c2c(O)c1=O [Compound 6d, N-(2,4-Difluorobenzyl)-9-hydroxy-2-(5-hydroxypentyl)-1,8-dioxo-1,8-dihydro-2H-pyrido [1,2-a]pyrazine-7-carboxamide]
- EC50 [1, 2]: ~11 nM
- EC50 [1, 3]: 10.8 ± 1.7 nM
